The record followed here is doi:10.1101/2024.08.19.608619, “Discovery of potent SARS-CoV-2 nsp3 macrodomain inhibitors uncovers lack of translation to cellular antiviral response” (bioRxiv, 2024).

The subject of one series is HeLa-ACE2 cells. Conditions: for perc_max_measured: highest measured response of the dose series; for perc_min_measured: lowest measured response of the dose series.
Series [1] is described as follows: Hepatic microsomal stability, HLM. Type of series: in vitro ADME, human. The conditions noted are these: In vitro human liver microsomal stability; for perc_remaining_no_cofactor: no cofactor. On the technique in general: Liver microsomes are vesicles of endoplasmic reticulum, rich in cytochrome P450 enzymes.
A short description of the next series: in vitro. Conditions: human, hela-ace2 cells, 50.0.
Series [2] can be described thus: In vitro kinetic solubility. Conditions: In vitro kinetic solubility, ph 7.4.
A further series in a line: LogD. Conditions: pH 7.4; In vitro LogD.
A short description of series [3]: Hepatic microsomal stability, MLM. The class given is in vitro ADME. Conditions: In vitro mouse liver microsomal stability; for perc_remaining_no_cofactor: no cofactor.
Series [4] deals with SARS-CoV-2, isolate USA-WA1/2020. The series can be described thus: microbe, parasite or virus in culture. The conditions noted are these: HeLa-ACE2 SARS-CoV-2 antiviral effect without P-gp inhibitor; for perc_max_measured: maximum measured response of dose series; for perc_min_measured: minimum measured response of dose series; for EC50: read-out: ec50; for EC90: read-out: ec90. The class given is cell-based.

The nature of series [5]: Permeability Papp (AB) MDR1/MDCKII. Conditions: In vitro MDR1-MDCKII permeability; for papp_a_to_b_mean: A to B; for perc_recovery_a_to_b_mean: recovery A to B.
Setting [6] is: protocol HeLa-ACE2 cytotoxicity.

Values after ≈ are worked out from the molar mass of the structure shown. Read-outs that look alike come from different tables or passages of the source.

In the case of `CC(C)[C@@H](Nc1ncnc2[nH]c(-c3cnn(C)c3)cc12)c1ccc2c(c1)S(=O)(=O)NCC2` [ASAP-0011192], in the series on HeLa-ACE2 cells (HeLa-ACE2 cytotoxicity), the CC50 was more than 20 µM, the cc10 was more than 20.0 µM, the perc_max_measured was found to be 100.208% and the perc_min_measured is 90.498%. In series [1], the clint was found to be 120.0 µL/min/mg, the perc_remaining is given as 13.0%, the t_half was 13.9 min and the perc_remaining_no_cofactor came to 98.0%. The compound further had a CC50 at 24 h in “in vitro” of more than 20 µM. Besides, in series [2], the solubility_mean is 105 µM (≈ 47.4 µg/mL). Further, the logd in “LogD” is 3.2. Besides, in series [3], the clint stood at 87.0 µL/min/mg, the perc_remaining turned out to be 23.0%, the t_half is on record as 19.1 min and the perc_remaining_no_cofactor was 92.0%. In series [4], the perc_max_measured turned out to be 105.419%, the perc_min_measured was 69.993%, the EC50 was more than 20 µM and the EC90 was more than 20 µM. In series [5] (mean), this compound showed a papp_a_to_b_mean of 1.58 ×10⁻⁶ cm/s and a perc_recovery_a_to_b_mean of 93.2%.

In the series on HeLa-ACE2 cells (HeLa-ACE2 cytotoxicity), `CC(C)[C@@H](Nc1ncnc2[nH]c(-c3ccc4nnn(C)c4c3)cc12)c1ccc2c(c1)S(=O)(=O)CCC2` [ASAP-0011201] showed a half-maximal cytotoxic concentration (CC50) of more than 20 µM, a cc10 of more than 20.0 µM, a perc_max_measured of 106.149% and a perc_min_measured of 70.638%. In series [1], the clint was found to be 752.0 µL/min/mg, the perc_remaining is 0.0%, the t_half is 2.2 min and the perc_remaining_no_cofactor came to 93.0%. In the series “in vitro”, the CC50 at 24 h was more than 20 µM. Besides, in series [2], the solubility_mean stood at 6 µM (≈ 3.01 µg/mL). This compound yielded a logd in the series “LogD” of 3.4. In series [3], the clint came out at 219.0 µL/min/mg, the perc_remaining worked out at 3.0%, the t_half was found to be 7.6 min and the perc_remaining_no_cofactor stood at 93.0%. In addition, in series [4], the perc_max_measured is 110.665%, the perc_min_measured is given as 33.895%, the EC50 was found to be 3.64 µM and the EC90 is more than 20 µM. In series [5] (no inhibitor), this compound showed a papp_a_to_b_mean of 0.827 ×10⁻⁶ cm/s and a perc_recovery_a_to_b_mean of 53.6%.

In the case of `CC(C)[C@@H](Nc1ncnc2[nH]cc(C(=O)NC3CC3)c12)c1ccc2c(c1)S(=O)(=O)CCC2` [ASAP-0011207], in the series on HeLa-ACE2 cells (HeLa-ACE2 cytotoxicity), the CC50 is more than 20 µM, the cc10 was more than 20.0 µM, the perc_max_measured stood at 109.458% and the perc_min_measured was 97.44%. Further, in series [1], the clint came to 409.0 µL/min/mg, the perc_remaining was 0.0%, the t_half came out at 4.1 min and the perc_remaining_no_cofactor was found to be 111.0%. Besides, in the series “in vitro”, the CC50 at 24 h was more than 20 µM. In addition, the solubility_mean in series [2] stood at 216 µM (≈ 98 µg/mL). Moreover, in the series “LogD”, the logd is given as 3.2. Also, in series [3], the clint came out at 1740.0 µL/min/mg, the perc_remaining is 0.0%, the t_half is given as 1.0 min and the perc_remaining_no_cofactor was determined as 102.0%. In series [4], the perc_max_measured came out at 103.36%, the perc_min_measured is listed as 37.723%, the EC50 came out at 14.4 µM and the EC90 is more than 20 µM. For the same compound, in series [5] (mean), the papp_a_to_b_mean was found to be 2.97 ×10⁻⁶ cm/s and the perc_recovery_a_to_b_mean is recorded as 85.8%.

As for `CC(C)[C@@H](Nc1ncnc2[nH]c(-c3ccc4cncn4c3)cc12)c1ccc2c(c1)S(=O)(=O)CCC2` [ASAP-0011215], in the series on HeLa-ACE2 cells (HeLa-ACE2 cytotoxicity), the CC50 is more than 20 µM, the cc10 is more than 20.0 µM, the perc_max_measured turned out to be 108.268% and the perc_min_measured came out at 81.968%. In addition, in series [1], the clint is 210.0 µL/min/mg, the perc_remaining is reported as 4.0%, the t_half worked out at 8.0 min and the perc_remaining_no_cofactor is 97.0%. The CC50 at 24 h in the series “in vitro” was more than 20 µM. In series [2], this compound had a solubility_mean of 14 µM (≈ 6.81 µg/mL). In the series “LogD”, the logd was found to be 4.0. Further, in series [3], the clint was determined as 170.0 µL/min/mg, the perc_remaining is 6.0%, the t_half was 9.8 min and the perc_remaining_no_cofactor is listed as 87.0%. In addition, in series [4], the perc_max_measured is reported as 92.609%, the perc_min_measured stood at 28.375%, the EC50 is 7.12 µM and the EC90 is more than 20 µM. Further, in series [5] (no inhibitor), the papp_a_to_b_mean is 0.56 ×10⁻⁶ cm/s and the perc_recovery_a_to_b_mean is reported as 70.8%.

In the series on HeLa-ACE2 cells (setting [6]), `CC(C)[C@@H](Nc1ncnc2[nH]c(-c3cnn(CC(N)=O)c3)cc12)c1ccc2c(c1)S(=O)(=O)CCC2` [ASAP-0011432] displayed a CC50 of more than 20 µM, a cc10 of more than 20.0 µM, a perc_max_measured of 97.628% and a perc_min_measured of 83.24%. Moreover, in series [1], the clint stood at 115.0 µL/min/mg, the perc_remaining came to 15.0%, the t_half worked out at 14.5 min and the perc_remaining_no_cofactor turned out to be 103.0%. In “in vitro”, this compound showed a CC50 at 24 h of more than 20 µM. The same compound showed a solubility_mean in series [2] of 335 µM (≈ 165 µg/mL). For the same compound, in the series “LogD”, the logd was determined as 2.0. Also, in series [3], the clint stood at 96.0 µL/min/mg, the perc_remaining is 20.0%, the t_half was determined as 17.4 min and the perc_remaining_no_cofactor is 111.0%. In series [4], the perc_max_measured came out at 127.59%, the perc_min_measured came out at 107.301%, the EC50 was more than 20 µM and the EC90 was more than 20 µM. In series [5] (mean), this compound returned a papp_a_to_b_mean of 0.719 ×10⁻⁶ cm/s and a perc_recovery_a_to_b_mean of 76.6%.

In the series on HeLa-ACE2 cells (HeLa-ACE2 cytotoxicity), `CC(C)[C@@H](Nc1ncnc2[nH]ccc12)c1ccc2c(c1)S(=O)(=O)CCO2` [ASAP-0012318] yielded a CC50 of more than 20 µM, a cc10 of more than 20.0 µM, a perc_max_measured of 106.826% and a perc_min_measured of 90.526%. For the same compound, in series [1], the clint stood at 18.0 µL/min/mg, the perc_remaining was 74.0%, the t_half amounted to 91.3 min and the perc_remaining_no_cofactor amounted to 92.0%. Further, the CC50 at 24 h in “in vitro” is more than 20 µM. In series [2], the solubility_mean came to 372 µM (≈ 139 µg/mL). The same compound came in with a logd in “LogD” of 2.6. Besides, in series [3], the clint stood at 69.0 µL/min/mg, the perc_remaining came out at 33.0%, the t_half is 24.2 min and the perc_remaining_no_cofactor came out at 111.0%. In series [4], the perc_max_measured is 99.283%, the perc_min_measured came to 83.757%, the EC50 is more than 20 µM and the 90% effect concentration (EC90) is more than 20 µM. In addition, in series [5] (no inhibitor), the papp_a_to_b_mean was determined as 4.4 ×10⁻⁶ cm/s and the perc_recovery_a_to_b_mean is reported as 69.0%.

A word on the CC50: it is the concentration that lowers cell viability or growth by half. Low readings indicate greater toxicity to the cells, high ones lower toxicity to the cells. Usually EC50 stands for the concentration that produces a half-maximal response. As usually defined, the EC90 is the concentration needed for an effect of 90%.
